Source: patent US10144929B2, “Polypeptide inhibitors of Smad3 polypeptide activities” (Mayo Foundation for Medical Education and Research, priority 2016, dated 2018)
“Also recorded” adds a separate entry of the source.

System: bleomycin (BLM)-induced lung fibrosis
Assay: Treatment model of bleomycin (BLM)-induced lung fibrosis
Assay type: in vivo, mice
Details: for interstitial fibronectin / lung histology: daily intraperitoneal 0.5 mg/kg from day 14, day 28; for BLM induction of profibrotic genes (collagen 1, connective tissue growth factor, fibronectin), qPCR of lung tissue / total collagen production induced by bleomycin (hydroxyproline content): daily intraperitoneal from day 14, day 28; for peripheral blood oxygen saturation (SpO2) / gas exchange: 2-week treatment interval from day 14
Method: FIGS. 5A-D. Bleomycin (BLM)-induced lung remodeling is attenuated by TAT-SH3-2. (A) Hematoxylin and Eosin (H&E), Masson's Trichrome (MT), or fibronectin (anti-fibronectin and Hematoxylin) staining of representative paraffin-embedded lung sections from Control (saline treated) or mice challenged with BLM for 28 days and treated daily with 0.5 mg/kg TAT-SH3-2 or TAT-SH3-2M beginning 14 days following initial BLM insult (×8). (B) qPCR of the indicated genes (Col1, collagen 1; CTGF, connective tissue growth factor; FN, fibronectin) in murine lung tissue harvested on day 28 from mice challenged with BLM (+) or saline (−) and treated daily with vehicle (−; methocel/saline) or the indicated amount (μg) of TAT-SH3-2 or TAT-SH3-2M as in (A). Data reflect mean+/−sd of n=4. (C) Mice were treated with saline or BLM as in (A) and on day 14 administered daily vehicle (−) or the indicated concentration of TAT peptide. Animals were sacrificed on day 28, and hydroxyproline content was determined as described herein. Data reflect mean+/−sd of n=3. *P<0.005, **P<0.002. (D) Mice were treated as in (C), and qPCR of the indicated genes (Col Iα1 (collagen Iα1); CTGF (connective tissue growth factor); and FN (fibronectin)) were assessed in lung tissue harvested on day 28. Data reflect mean+/−sd of n=5. *P<0.005, **P<0.001.
Time-dependent fluctuation of oxygen saturation (SpO2) levels (determined on room air) in mice challenged with BLM (or saline) for 28 days and treated 1×/day with vehicle (methocel/saline), 0.5 mg/kg of TAT-SH3-2 or TAT-SH3-2M beginning 14 days after initial BLM insult. Error bars reflect SEM from n=4. (B) Time-dependent fluctuation of oxygen saturation (SpO2) levels (determined on room air) in mice challenged with BLM (or saline) for 28 days and treated 1×/day with vehicle (methocel/saline) or the indicated concentration of TAT-SH3-2 or TAT-SH3-2M beginning 14 days after initial BLM insult. Error bars reflect mean+/−sd from n=5. *P<0.05, **P<0.01.
Female 18-20 g C57 black mice (Charles River Laboratories) were administered bleomycin (BLM; 0.075 U diluted in 50 μL 0.9% normal saline) or 50 μL 0.9% normal saline alone by tracheal instillation using an intratracheal aerosolized (Penn-century, Wyndmoor, Pa.) as described elsewhere (Andrianifahanana et al., FASEB J., 27(11):4444-54 (2013)). At this time, animals were shaved around the collar region to allow monitoring of dissolved oxygen levels (every 3rd day) on room air using a MouseOX collar clip monitoring system (Starr Life Science Corp. Oakmont, Pa.). TAT-SNX9(SH3) fusion polypeptides were solubilized with DMSO and prepared by thoroughly blending with Methocel (Sigma, Louis, Mo.) at a ratio of 1:7. Mice were treated daily by intraperitoneal injection (100 μL) of a TAT-SNX9(SH3) fusion polypeptide or an equal volume of methocel/saline beginning on day 14. On day 28, mice were euthanized, lungs were dissected, and samples were prepared for immunohistochemistry and other analyses as described elsewhere (Andrianifahanana et al., FASEB J., 27(11):4444-54 (2013); Daniels et al., J. Clin. Invest., 114:1308-16 (2004); and Wang et al., FASEB J., 19:1-11 (2005)).
The Hydroxyproline Assay Kit from Sigma (St. Louis, Mo.) was used to assess total lung collagen levels. Briefly, following sacrifice lung tissue was washed in PBS, and 30 mg homogenized in 300 μL water. One hundred μL samples were hydrolyzed in 12 M HCl, and duplicate 50 μL samples were analyzed according to the manufacturer's recommendations.

Substance | BLM-induced lung remodeling (FIG. 5 title) | loss of lung function (SpO2) (animals receiving the highest concentration, FIG. 6B) | interstitial fibronectin | lung histology | BLM induction of profibrotic genes (collagen 1, connective tissue growth factor, fibronectin), qPCR of lung tissue | total collagen production induced by bleomycin (hydroxyproline content) | peripheral blood oxygen saturation (SpO2) / gas exchange (room air) | peripheral blood oxygen saturation (SpO2) / gas exchange (room air, listed as TAT-SH-2) | decrease in SpO2 during the treatment regime (room air, FIG. 6B)
TAT-SH3-2: TAT-SNX9(SH3) fusion polypeptide having SNX9 amino acids 21-51 (31 mer) (TVNEGEIITITNPDVGGGWLEGRNIKGERGL; left off: small tags and cut ends) | attenuated | no additional loss of lung function | reduced interstitial fibronectin to essentially basal levels | improved lung histology | significantly reduced | dose-dependent dimunization in total collagen production | stabilized and/or improved gas exchange; also recorded: dose-dependent improvement in gas exchange | stabilizes lung gas exchange | 
TAT-SH3-2M: TAT-SH3-2 with G to V point mutations at amino acids 36-38; inactive TAT-SNX9 peptide unable to bind pSmad3 (TVNEGEIITITNPDVVVVWLEGRNIKGERGL; left off: small tags and cut ends) |  |  | ineffective | ineffective | but not TAT-SH3-2M, significantly reduced | ineffective | analogous decline in SpO2 |  | ~25%
